Results on ten molecules are retold here after patent US20110263593A1, “NOVEL IMIDAZO[1,2-a]PYRIMIDINE DERIVATIVES, METHOD FOR THE PREPARATION THEREOF, USE THEREOF AS MEDICAMENTS, PHARMACEUTICAL COMPOSITIONS AND NOVEL USE, IN PARTICULAR AS MET INHIBITORS” (sanofi-aventis, priority 2008, published 2011).

For data set [1], the system named is HCT116 cells and MKN45 cells. Description: Test C: measurement of cell proliferation by 14C-thymidine pulse. The data set is classed as cell-based. As to conditions: 14C-thymidine incorporation, 96 h of treatment; cell line not stated (HCT116 and MKN45 in method). As for the experimental part:
C) Test C: Measurement of cell proliferation by ^14C-thymidine pulse
The cells are seeded into Cytostar 96-well plates in 180 μl for 4 hours at 37° C. and 5% CO2: HCT116 cells at a rate of 2500 cells per well in DMEM medium+10% foetal calf serum+1% L-glutamine and MKN45 cells at a rate of 7500 cells per well in RPMI medium+10% foetal calf serum+1% L-glutamine. After these 4 hours of incubation, the products are added in 10 μl as a 20-fold concentrated solution according to the dilution method mentioned for the ELISA. The products are tested at 10 concentrations in duplicate from 10 000 nM to 0.3 nM with an increment of 3.
After treatment for 72 h, add 10 μl of ^14C-thymidine at 10 μCi/ml to obtain 0.1 μCi per well. The ^14C-thymidine incorporation is measured on a Micro-Beta machine (Perkin-Elmer) after 24 hours of pulse and 96 h of treatment.
All the stages of the assay are automated on BIOMEK 2000 or TECAN stations.
(Dividing cells build labelled thymidine or BrdU into new DNA.)

For data set [2], the target named is T1, MET (Homo sapiens, UniProt P08581). Description: Test B: inhibition of the autophosphorylation of MET, ELISA technique (pppY1230, 1234, 1235) in MKN45 cells. Type of data set: cell-based. Also noted: endogenous in cells; host or cells: MKN45 cells. The settings on record: 1 h treatment, phosphoMET ELISA. As to the method:
B) Test B: Inhibition of the Autophosphorylation of MET; ELISA Technique (pppY1230, 1234, 1235)
a) Cell lysates: Seed MKN45 cells into 96-well plates (Cell coat BD polylysine) at 20 000 cells/well in 200 μl in RPMI medium+10% FCS+1% L-glutamine. Leave to adhere for 24 hours in an incubator.
The cells are treated the day after seeding with the products at 6 concentrations in duplicate for 1 h. At least 3 control wells are treated with the same final amount of DMSO.
Product dilution: Stock at 10 mM in pure DMSO—range from 10 mM to 30 μM with an increment of 3 in pure DMSO—intermediate 1/50 dilutions in culture medium and then removal of 10 μl added directly to the cells (200 μl): final range from 10 000 to 30 nM.
At the end of the incubation, carefully remove the supernatant and rinse with 200 μl of PBS. Next, place 100 μl of lysis buffer directly in the wells on ice and incubate at 4° C. for 30 minutes. Lysis buffer: 10 mM Tris HCl, pH 7.4, 100 mM NaCl, 1 mM EDTA, 1 mM EGTA, 1% Triton X-100, 10% glycerol, 0.1% SDS, 0.5% deoxycholate, 20 mM NaF, 2 mM Na3VO4, 1 mM PMSF and cocktail of antiproteases.
The 100 μl of lysates are transferred into a V-bottomed polypropylene plate and the ELISA is performed immediately, or the plate is frozen at −80° C.
b) PhosphoMET ELISA BioSource Kit KH00281
Into each well of the kit plate, add 70 μl of kit dilution buffer+30 μl of cell lysate or 30 μl of lysis buffer for the blanks. Incubate for 2 h with gentle agitation at ambient temperature.
Rinse the wells 4 times with 400 μl of kit washing buffer. Incubate with 100 μl of anti-phospho MET antibody for 1 hour at ambient temperature.
Rinse the wells 4 times with 400 μl of kit washing buffer. Incubate with 100 μl of anti-rabbit HRP antibody for 30 minutes at ambient temperature (except for the wells of chromogen alone).
Rinse the wells 4 times with 400 μl of kit washing buffer. Introduce 100 μl of chromogen and incubate for 30 minutes in the dark at ambient temperature.
Stop the reaction with 100 μl of stop solution. Read without delay at […], 0.1 second on Wallac Victor plate reader.
Target sequence in this assay (P08581 25-1390): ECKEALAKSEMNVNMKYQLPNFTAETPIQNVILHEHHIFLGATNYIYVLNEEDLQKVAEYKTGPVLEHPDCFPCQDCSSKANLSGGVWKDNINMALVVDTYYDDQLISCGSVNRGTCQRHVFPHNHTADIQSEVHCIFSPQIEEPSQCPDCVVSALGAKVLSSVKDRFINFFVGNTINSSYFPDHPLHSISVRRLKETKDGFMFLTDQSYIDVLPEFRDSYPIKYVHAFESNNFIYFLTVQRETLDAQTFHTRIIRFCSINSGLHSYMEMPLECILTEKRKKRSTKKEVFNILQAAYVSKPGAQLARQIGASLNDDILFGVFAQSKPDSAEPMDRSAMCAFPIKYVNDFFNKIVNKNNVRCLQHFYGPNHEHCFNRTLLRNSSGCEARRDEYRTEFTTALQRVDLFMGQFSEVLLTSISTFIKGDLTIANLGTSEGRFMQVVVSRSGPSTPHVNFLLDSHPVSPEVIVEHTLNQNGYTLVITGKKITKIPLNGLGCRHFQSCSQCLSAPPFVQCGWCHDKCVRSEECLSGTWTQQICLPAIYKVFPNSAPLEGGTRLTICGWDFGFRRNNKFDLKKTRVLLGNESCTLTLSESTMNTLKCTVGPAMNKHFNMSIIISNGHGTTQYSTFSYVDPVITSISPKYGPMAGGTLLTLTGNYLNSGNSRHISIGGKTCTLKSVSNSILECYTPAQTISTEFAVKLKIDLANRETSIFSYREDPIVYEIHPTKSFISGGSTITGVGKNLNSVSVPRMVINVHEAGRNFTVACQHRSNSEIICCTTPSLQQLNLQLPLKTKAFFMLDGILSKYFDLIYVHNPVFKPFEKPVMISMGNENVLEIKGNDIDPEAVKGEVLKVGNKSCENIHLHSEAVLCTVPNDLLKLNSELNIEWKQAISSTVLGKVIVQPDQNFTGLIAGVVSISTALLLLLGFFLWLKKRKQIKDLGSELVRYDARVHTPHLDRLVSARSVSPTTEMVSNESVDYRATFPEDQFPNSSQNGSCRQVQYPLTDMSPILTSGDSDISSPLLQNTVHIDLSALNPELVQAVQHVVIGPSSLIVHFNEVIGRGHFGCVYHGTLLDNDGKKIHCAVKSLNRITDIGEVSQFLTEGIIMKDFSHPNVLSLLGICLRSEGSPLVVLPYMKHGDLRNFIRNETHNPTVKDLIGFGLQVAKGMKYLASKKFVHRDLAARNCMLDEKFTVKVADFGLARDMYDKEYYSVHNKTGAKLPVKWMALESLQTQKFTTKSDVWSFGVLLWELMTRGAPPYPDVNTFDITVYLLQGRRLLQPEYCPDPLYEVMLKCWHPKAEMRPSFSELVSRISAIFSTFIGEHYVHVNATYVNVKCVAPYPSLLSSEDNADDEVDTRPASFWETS
In general terms: An ELISA detects its analyte on a solid surface through an enzyme-linked reagent.

For data set [3], the target named is T1, MET. As to the kind of experiment: Test A: HTRF MET assay in 96-well format. Type of data set: biochemical. Further details: The His-Tev-MET (956-1390) recombinant DNA in pFastBac (Invitrogen) is transfected into insect cells; His (N, cleaved yes); Tev cleavage site (N, cleaved yes); made in house; host or cells: SF21 insect cells (baculovirus, pFastBac). The settings on record: 5 nM MET, 10 μM ATP. As for the experimental part:
I) Expression and Purification of MET, Cytoplasmic Domain
The His-Tev-MET (956-1390) recombinant DNA in pFastBac (Invitrogen) is transfected into insect cells and, after several viral amplification stages, the final baculovirus stock is tested for the expression of the protein of interest.
After infection for 72 h at 27° C. with the recombinant virus, the SF21 cell cultures are harvested by centrifugation and the cell pellets are stored at −80° C.
The cell pellets are resuspended in lysis buffer (buffer A [50 mM HEPES, pH 7.5, 250 mM NaCl, 10% glycerol, 1 mM TECP]; + cocktail of protease inhibitors, Roche Diagnostics, without EDTA, ref. 1873580), stirred at 4° C. until the mixture is homogeneous and then lysed mechanically using a “Dounce” type apparatus.
After centrifugation, the lysis supernatant is incubated for 2 h at 4° C. with nickel chelate resin (His-Trap 6 Fast Flow™, GE HealthCare). After washing with 20 volumes of buffer A, the suspension is packed into a column, and the proteins are eluted with a gradient of buffer B (buffer A+290 mM imidazole).
The fractions comprising the protein of interest for the purpose of electrophoretic analysis (SDS PAGE) are combined, concentrated by ultrafiltration (10 kDa cut-off) and injected onto an exclusion chromatography column (Superdex™ 200, GE HealthCare) equilibrated in buffer A.
After enzymatic cleavage of the histidine tag, the protein is reinjected onto a new IMAC nickel chelate chromatography column (His-Trap 6 Fast Flow™, GE HealthCare) equilibrated in buffer A. The fractions eluted with a gradient of buffer B and comprising the protein of interest after electrophoresis (SDS PAGE) are finally combined and conserved at −80° C.
For the production of autophosphorylated protein, the previous fractions are incubated for 1 h at ambient temperature after the addition of 2 mM ATP, 2 mM MgCl2, and 4 mM Na3VO4. After the reaction has been stopped with 5 mM of EDTA, the reaction mixture is injected onto a HiPrep desalifying column (GE HealthCare) preequilibrated in buffer A+4 mM Na3VO4, and the fractions comprising the protein of interest (SDS PAGE analysis) are combined and stored at −80° C. The degree of phosphorylation is verified by mass spectrometry (LC-MS) and by peptide mapping.
A) Test A: HTRF MET Assay in 96-Well Format
MET at a final concentration of 5 nM is incubated in a final volume of 50 μl of enzymatic reaction in the presence of the test molecule (for a final concentration range of from 0.17 nM to 10 μM, 3% DMSO final concentration) in 10 mM MOPS buffer, pH 7.4, 1 mM DTT, 0.01% Tween 20. The reaction is initiated with the substrate solution to obtain final concentrations of 1 μg/ml poly-(GAT), 10 μM ATP and 5 mM MgCl2. After incubation for 10 min at ambient temperature, the reaction is stopped with a 30 μl mix so as to obtain a final solution of 50 mM Hepes, pH 7.5, 500 mM potassium fluoride, 0.1% BSA and 133 mM EDTA in the presence of 80 ng of streptavidin 61SAXLB Cis-Bio Int. and 18 ng of anti-phosphotyrosine Mab PT66-Europium Cryptate per well. After incubation for 2 hours at ambient temperature, the reading is taken at 2 wavelengths, 620 nm and 665 nm, on a reader for the TRACE/HTRF technique and the % inhibition is calculated from the 665/620 ratios.
Target sequence in this assay (P08581 956-1390): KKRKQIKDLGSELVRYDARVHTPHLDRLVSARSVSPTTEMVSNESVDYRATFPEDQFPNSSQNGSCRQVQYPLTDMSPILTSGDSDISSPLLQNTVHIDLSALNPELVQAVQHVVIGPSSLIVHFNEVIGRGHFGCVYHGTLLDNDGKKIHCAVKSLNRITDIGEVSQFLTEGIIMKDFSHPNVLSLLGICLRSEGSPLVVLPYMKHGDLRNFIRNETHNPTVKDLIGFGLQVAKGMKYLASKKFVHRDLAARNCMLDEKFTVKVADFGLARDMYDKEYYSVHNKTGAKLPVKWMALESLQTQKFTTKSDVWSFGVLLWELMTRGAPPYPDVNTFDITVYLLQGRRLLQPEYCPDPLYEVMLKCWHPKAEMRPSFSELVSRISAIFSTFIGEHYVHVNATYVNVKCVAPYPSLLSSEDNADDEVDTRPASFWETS
A general note: Time-resolved FRET reads energy transfer from a long-lived donor to a nearby acceptor.

The IC50 is the concentration that gives 50% inhibition. What is called melting point is the temperature, or range, at which the solid turns liquid.

Where only a bound is given, the exact number is not on record here.

`COCCC(=O)Nc1nc2ccc(Sc3cnc4ncccn34)cc2s1` [Example 20, N-[6-(imidazo[1,2-a]pyrimidin-3-ylsulphanyl)-1,3-benzothiazol-2-yl]-3-methoxypropanamide] showed a melting point of 225 °C. In data set [1], the IC50 was < 1000 nM. Besides, in data set [2], the IC50 was < 100 nM. Besides, the IC50 in data set [3] was < 100 nM.

As to `Nc1nc2ccc(Sc3cnc4ncccn34)cc2s1` [Example 1, 6-(imidazo[1,2-a]pyrimidin-3-ylsulphanyl)-1,3-benzothiazol-2-amine], the melting point was > 260 °C. Further, the IC50 in data set [1] is < 1000 nM. In addition, in data set [2], the IC50 is < 500 nM. Further, in data set [3], the IC50 is < 100 nM.

In the case of `O=C(CCN1CCCC1)Nc1nc2ccc(Sc3cnc4ncccn34)cc2s1` [Example 8, N-[6-(imidazo[1,2-a]pyrimidin-3-ylsulphanyl)-1,3-benzothiazol-2-yl]-3-(pyrrolidin-1-yl)propanamide], the melting point is 247 °C. Besides, in data set [1], the IC50 is < 1000 nM. Besides, in data set [2], the IC50 was < 100 nM. Moreover, in data set [3], the concentration for half-maximal inhibition (IC50) is < 100 nM.

With `O=C(Nc1nc2ccc(Sc3cnc4ncccn34)cc2s1)C1CC1` [Example 2, N-[6-(imidazo[1,2-a]pyrimidin-3-ylsulphanyl)-1,3-benzothiazol-2-yl]cyclopropanecarboxamide], the melting point was found to be 258 °C. In addition, in data set [1], the IC50 is < 1000 nM. The IC50 in data set [2] is < 100 nM. Moreover, the IC50 in data set [3] is < 100 nM.

`CCN1CCN(CC(=O)Nc2nc3ccc(Sc4cnc5ncccn45)cc3s2)CC1` [Example 15, 2-(4-ethylpiperazin-1-yl)-N-[6-(imidazo[1,2-a]pyrimidin-3-ylsulphanyl)-1,3-benzothiazol-2-yl]acetamide] came in with a melting point of 210 °C. Further, in data set [1], the IC50 was < 1000 nM. The IC50 in data set [2] is < 100 nM. For the same molecule, in data set [3], the IC50 is < 100 nM.

The molecule `O=C(Nc1nc2ccc(S(=O)(=O)c3cnc4ncccn34)cc2s1)C1CC1` [Example 7, N-[6-(imidazo[1,2-a]pyrimidin-3-ylsulphonyl)-1,3-benzothiazol-2-yl]cyclopropanecarboxamide] came in with a melting point of 232 °C. The IC50 in data set [1] was < 1000 nM. Further, the IC50 in data set [2] was < 100 nM. Moreover, in data set [3], the IC50 is < 100 nM.

Turning to `Nc1nc2cc(F)c(Sc3cnc4ncccn34)cc2s1` [Example 19, 5-fluoro-6-(imidazo[1,2-a]pyrimidin-3-ylsulphanyl)-1,3-benzothiazol-2-amine], the melting point is > 264 °C. Moreover, the IC50 in data set [1] was < 1000 nM. For the same molecule, the IC50 in data set [2] was < 100 nM. In data set [3], the IC50 was < 100 nM.

Regarding `O=C(CN1CCN(C2CC2)CC1)Nc1nc2ccc(Sc3cnc4ncccn34)cc2s1` [Example 16, 2-(4-cyclopropylpiperazin-1-yl)-N-[6-(imidazo[1,2-a]pyrimidin-3-ylsulphanyl)-1,3-benzothiazol-2-yl]acetamide], the melting point turned out to be 224 °C. In addition, in data set [1], the IC50 was < 1000 nM. Moreover, the IC50 in data set [2] was < 100 nM. Besides, in data set [3], the IC50 is < 100 nM.

Regarding `Nc1ccn2c(Sc3ccc4nc(NC(=O)C5CC5)sc4c3)cnc2n1` [Example 22, N-{6-[(7-aminoimidazo[1,2-a]pyrimidin-3-yl)sulphanyl]-1,3-benzothiazol-2-yl}cyclopropanecarboxamide], the melting point is > 264 °C. Also, in data set [1], the IC50 is < 1000 nM. For the same molecule, the IC50 in data set [2] was < 100 nM. Besides, the IC50 in data set [3] is < 100 nM.

Take `O=C(NCCN1CCOCC1)Nc1nc2ccc(Sc3cnc4ncccn34)cc2s1` [Example 4, 1-[6-(imidazo[1,2-a]pyrimidin-3-ylsulphanyl)-1,3-benzothiazol-2-yl]-3-[2-(morpholin-4-yl)ethyl]urea]: the melting point is > 260 °C. Further, in data set [1], the IC50 was < 1000 nM. In addition, the IC50 in data set [2] is < 100 nM. Moreover, the IC50 in data set [3] is < 100 nM.
